Assay results reported in patent US20140329863A1 (priority 2011, published 2014).
Where two headings read alike, the source gives them in different places.

How the values were obtained:
[1] = system: PrP^Sc in nondividing ScN2a-cl3 cells; format: cell-based, mouse; details: SPC assay, nondividing cells
[2] = system: N2a-cl3 cells
[3] = system: PrP^Sc in dividing ScN2a-cl3 cells; format: cell-based, mouse; details: for Inhibition of Baseline PrP^5c (%) Dividing Cells ELISA: SPC assay
[4] = Table 29, 2-AMT analogs tested for potency, usually n = 3 or more
[5] = read-out: Potency (μM) ELISA (EC50), FDA-approved drugs, ScN2a-c13 assay, dividing cells
[6] = FDA-approved drugs, ScN2a-c13 assay, dividing cells, read-out: Potency (μM) ELISA (EC50)

Compound | Inhibition of Baseline PrP^5c (%) Non-dividing Cells ELISA [1] | Dividing Cells V (cell viability percentages) [2] | Non-dividing Cells V (cell viability percentages) [2] | Inhibition of Baseline PrP^5c (%) Dividing Cells ELISA ([3]; dividing cells) | also measured
Cc1ccc2[nH]c3c(c2c1)CCCC3NC1CCCCC1 (stereo not drawn) [IND-5381] | 48% | 12% | 16% | 27% | –
COc1ccc(-c2csc(Nc3cnccn3)n2)cc1OC [IND82, [4-(3,4-Dimethoxy-phenyl)-thiazol-2-yl]-pyrazin-2-yl-amine] | – | – | – | – | EC50 ([3]; AMT analogs tested for potency): 15.6 µM; EC50 [3, 4]: 15.6 µM
O=C(Nc1ccccc1)Nc1ccc(F)c(Cl)c1 [IND-8314] | 56% | 7% | 17% | 87% | –
CN1C[C@H](C(=O)N[C@]2(C)O[C@@]3(O)[C@@H]4CCCN4C(=O)[C@H](Cc4ccccc4)N3C2=O)C[C@@H]2c3cccc4[nH]cc(c34)C[C@H]21 [Dihydroergotamine] | – | – | – | – | Potency (μM) Cell Viability ([2]; mouse): >10 µM; EC50 [3, 5]: 6.44 µM
Cc1ccc(Nc2nc(-c3ccncc3)cs2)nc1 [IND29, (5-Methyl-pyridin-2-yl)-(4-pyridin-4-yl-thiazol-2-yl)-amine] | – | – | – | – | EC50 ([3]; AMT analogs tested for potency): 1.57 µM; EC50 [3, 4]: 1.57 µM
COc1ccc(CN2CCN(c3ccc(C(C)=O)cc3)CC2)c(C)c1C [IND-17848] | 41% | 1% | 24% | 95% | –
COc1ccc(-c2csc(Nc3cc(C)ccn3)n2)cc1OC [IND42, [4-(3,4-Dimethoxy-phenyl)-thiazol-2-yl]-(4-methyl-pyridin-2-yl)-amine] | – | – | – | – | EC50 ([3]; AMT analogs tested for potency): 1 µM; EC50 [3, 4]: 1 µM
CCOc1ccc(/N=N/c2ccc(N)cc2N)cc1 [Ethoxazine] | – | – | – | – | Potency (μM) Cell Viability [2]: >10 µM; EC50 [3, 6]: 4.76 µM
CC(=O)c1ccc(N2CCN(CC(C)CCC=C(C)C)CC2)cc1 (stereo not drawn) [IND-18721] | 55% | – | 10% | 78% | –
COc1ccccc1OCCNCC(O)COc1cccc2[nH]c3ccccc3c12 (stereo not drawn) [Carvedilol] | – | – | – | – | Potency (μM) Cell Viability ([2]; mouse): 6.096 µM; EC50 [3, 5]: 2.28 µM
COc1cc(CN2CCN(c3cccc(C)c3C)CC2)cc(Br)c1O [IND-15461] | 48% | – | 3% | 22% | –
Enoxaparin | – | – | – | – | Potency Cell Viability, mg/L [2]: >10 (mg/L)
Cc1ccnc(Nc2nc(-c3cc(-c4ccc(Cl)cc4)no3)cs2)c1 [IND64, {4-[3-(4-Chloro-phenyl)-isoxazol-5-yl]-thiazol-2-yl}-(4-methyl-pyridin-2-yl)-amine] | – | – | – | – | EC50 ([3]; AMT analogs tested for potency): 0.85 µM; EC50 [3, 4]: 0.85 µM
CCN1CCN(c2ccc(Nc3ccnc4cc5ccccc5cc34)cc2)CC1 [IND-2118] | 51% | 25% | 24% | 76% | –
CC(=O)c1ccc(N2CCN(Cc3ccc(F)cc3F)CC2)cc1 [IND-18785] | 30% | 30% | 20% | 85% | –
COc1ccc(-c2csc(Nc3ccc(C(F)(F)F)cn3)n2)cc1OC [IND43, [4-(3,4-Dimethoxy-phenyl)-thiazol-2-yl]-(5-trifluoromethyl-pyridin-2-yl)-amine] | – | – | – | – | EC50 ([3]; AMT analogs tested for potency): 2.53 µM; EC50 [3, 4]: 2.53 µM
Cc1ccc2c(c1)c1c(n2CC(O)CO)C(=O)CCC1 (stereo not drawn) [IND-15474] | 39% | 11% | 9% | 14% | –
O=C(Nc1ccc(Cl)cc1)Nc1ccc(C(F)(F)F)cc1Cl [IND-19238] | 63% | – | 9% | 17% | –
CC(=O)c1ccc(N2CCN(Cc3cccc(Cl)c3)CC2)cc1 [IND-7486] | 31% | 6% | 12% | 84% | –
COc1ccc(-c2csc(Nc3ccccn3)n2)cc1OC [IND135, [4-(3,4-Dimethoxy-phenyl)-thiazol-2-yl]-pyridin-2-yl-amine] | – | – | – | – | EC50 ([3]; AMT analogs tested for potency): 1.23 µM

Compound | Inhibition of Baseline PrP^5c (%) Non-dividing Cells ELISA [1] | Dividing Cells V (cell viability percentages) [2] | Non-dividing Cells V (cell viability percentages) [2] | Inhibition of Baseline PrP^5c (%) Dividing Cells ELISA ([3]; dividing cells) | also measured
O=C(Nc1ccc(F)c(Cl)c1)Nc1ccc(Cl)c(Cl)c1 [IND-8255] | 61% | 2% | 11% | 92% | –
CC(=O)c1ccc(N2CCN(Cc3ccccc3Cl)CC2)cc1 [IND-19130] | 41% | 5% | 2% | 86% | –
Clc1ccc(N2CCN(C3CCSC3)CC2)cc1 (stereo not drawn) [IND-19847] | 51% | – | 3% | 42% | –
COc1ccc2[nH]c3c(OC)ncnc3c2c1 [IND-22103] | 37% | – | – | 81% | –
O=C(Nc1ccc(Cl)cc1)Nc1cc(Cl)cc(Cl)c1 [IND-5942] | 51% | 3% | 8% | 91% | –
Cc1ccc2[nH]c3c(c2c1)CCCC3NCC12CC3CC(CC(C3)C1)C2 (stereo not drawn) [IND-4176] | 53% | 9% | – | 98% | –
CN1CCc2cccc3c2[C@H]1Cc1ccc(O)c(O)c1-3 [Apomorphine] | – | – | – | – | EC50 [3, 5]: > 10 µM
CCCCc1oc2ccccc2c1C(=O)c1cc(I)c(OCCN(CC)CC)c(I)c1 [Amiodarone] | – | – | – | – | Potency (μM) Cell Viability ([2]; mouse): >10 µM
Cc1ccc(Nc2nc(-c3c(-c4ccccc4)noc3C)cs2)nc1 [IND36, [4-(5-Methyl-3-phenyl-isoxazol-4-yl)-thiazol-2-yl]-(5-methyl-pyridin-2-yl)-amine] | – | – | – | – | EC50 ([3]; AMT analogs tested for potency): > 32 µM; EC50 [3, 4]: > 32 µM
COc1ccc(-c2csc(Nc3cc4ccccc4cn3)n2)cc1 [IND86, Isoquinolin-3-yl-[4-(4-methoxy-phenyl)-thiazol-2-yl]-amine] | – | – | – | – | EC50 ([3]; AMT analogs tested for potency): 0.342 µM; EC50 [3, 4]: 0.342 µM
CC(=O)c1ccc(N2CCN(Cc3ccc(Br)s3)CC2)cc1 [IND-7190] | 34% | 8% | 12% | 97% | –
CC(=O)c1ccc(N2CCN(Cc3c(C)n(C)n(-c4ccccc4)c3=O)CC2)cc1 [IND-19672] | 35% | – | – | 64% | –
Cc1ccc(Nc2nc(-c3ccc(-c4ccccn4)s3)cs2)nc1 [IND76, (5-Methyl-pyridin-2-yl)-[4-(5-pyridin-2-yl-thiophen-2-yl)-thiazol-2-yl]-amine] | – | – | – | – | EC50 ([3]; AMT analogs tested for potency): 1.23 µM; EC50 [3, 4]: 1.23 µM
Cc1cccc(Nc2nc(-c3ccncc3)cs2)n1 [IND7, (6-Methyl-pyridin-2-yl)-(4-pyridin-4-yl-thiazol-2-yl)-amine] | – | – | – | – | EC50 ([3]; AMT analogs tested for potency): 1 µM; EC50 [3, 4]: 1 µM
CC(=O)c1ccc(N2CCN(Cc3cccc(Br)c3)CC2)cc1 [IND-7046] | 39% | 14% | 2% | 67% | –
Nc1c(C(=O)Nc2cc(F)ccc2F)sc2nc(-c3ccncc3)ccc12 [IND-0024575] | – | – | – | – | EC50 ([3]; read-out: Antiprion activity EC50, thienopyridine analogs): 3.49 µM
COc1ccc2cc1Oc1ccc(cc1)C[C@H]1c3cc(c(OC)cc3CCN1C)Oc1c(OC)c(OC)cc3c1[C@H](C2)N(C)CC3 [Tetrandine] | – | – | – | – | Potency (μM) Cell Viability [2]: 5.009 µM; EC50 [3, 6]: 2.15 µM
Nc1c(/N=N/c2ccc(-c3ccc(/N=N/c4cc(S(=O)(=O)O)c5ccccc5c4N)cc3)cc2)cc(S(=O)(=O)O)c2ccccc12 [Congo Red] | – | – | – | – | Potency (μM) Cell Viability ([2]; mouse): >10 µM; EC50 [3, 5]: 0.452 µM
CC(=O)c1ccc2c(c1)N(CCCN(C)C)c1ccccc1S2 [Acepromazine] | – | – | – | – | Potency (μM) Cell Viability ([2]; mouse): >10 µM; EC50 [3, 5]: 6.93 µM
